Key:
[1] = target: T1, Bromodomain BRD-2 (1-473) (Homo sapiens, UniProt P25440); assay: Fluorescence Anisotropy Binding Assay, BRD-2; conditions: displacement of fluorescent ligand (Reference compound K) 5 nM, BRD-2 75 nM; read-out: pIC50 in the BRD-2 assay (converted)
T1 construct: Recombinant Human Bromodomains (BRD-2 (1-473), BRD-3 (1-435) and BRD-4 (1-477)); six-His tag (N); made in house; host or cells: E. coli (pET15b vector)
Procedure: (§1) Fluorescence Anisotropy Binding Assay
(§2) All data was normalized to the mean of 16 high and 16 low control wells on each plate. A four parameter curve fit of the following form was then applied: y=a+((b−a)/(1+(10^x/10^c)^d)
(§3) Where ‘a’ is the minimum, ‘b’ is the Hill slope, ‘c’ is the pIC50 and ‘d’ is the maximum.
(§4) The His-tagged Bromodomain was extracted from E. coli cells using 0.1 mg/ml lysozyme and sonication. […] Further purification was completed by Superdex 200 prep grade size exclusion column. Purified protein was stored at −80 C in 20 mM HEPES pH 7.5 and 100 mM NaCl.
(§5) 10 μl of this reaction mixture was added using a micro multidrop to wells containing 100 nl of various concentrations of test compound or DMSO vehicle (1% final) in Greiner 384 well Black low volume microtitre plate and equilibrated in dark 60 mins at room temperature.

[2] = target: T2, Bromodomain BRD-3 (1-435) (Homo sapiens, UniProt Q15059); assay: Fluorescence Anisotropy Binding Assay, BRD-3; conditions: displacement of fluorescent ligand (Reference compound K) 5 nM, BRD-3 75 nM; read-out: pIC50 in the BRD-3 assay (converted)
T2 construct: Recombinant Human Bromodomains (BRD-2 (1-473), BRD-3 (1-435) and BRD-4 (1-477)); six-His tag (N); made in house; host or cells: E. coli (pET15b vector)
T2 sequence (Q15059 1-435): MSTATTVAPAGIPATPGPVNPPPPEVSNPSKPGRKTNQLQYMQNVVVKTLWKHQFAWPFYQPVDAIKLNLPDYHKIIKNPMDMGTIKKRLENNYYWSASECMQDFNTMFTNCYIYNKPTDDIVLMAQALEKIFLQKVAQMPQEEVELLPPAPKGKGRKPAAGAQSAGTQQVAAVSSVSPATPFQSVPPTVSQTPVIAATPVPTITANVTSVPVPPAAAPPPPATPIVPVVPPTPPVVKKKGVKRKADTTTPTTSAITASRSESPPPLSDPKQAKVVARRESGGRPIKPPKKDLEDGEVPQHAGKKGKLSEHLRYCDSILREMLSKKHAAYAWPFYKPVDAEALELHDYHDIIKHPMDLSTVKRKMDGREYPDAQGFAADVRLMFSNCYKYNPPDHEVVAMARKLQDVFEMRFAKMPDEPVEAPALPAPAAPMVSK
Procedure: as §1, §2, §3, §4, §5

[3] = target: Bromodomain BRD-4 (1-477) (Homo sapiens, UniProt O60885); assay: biochemical; conditions: pIC50 in the BRD-4 assay, displacement of fluorescent ligand (Reference compound K) 5 nM, BRD-4 75 nM
Procedure: as §1, §2, §3, §4, §5

T1 sequence (P25440 1-473): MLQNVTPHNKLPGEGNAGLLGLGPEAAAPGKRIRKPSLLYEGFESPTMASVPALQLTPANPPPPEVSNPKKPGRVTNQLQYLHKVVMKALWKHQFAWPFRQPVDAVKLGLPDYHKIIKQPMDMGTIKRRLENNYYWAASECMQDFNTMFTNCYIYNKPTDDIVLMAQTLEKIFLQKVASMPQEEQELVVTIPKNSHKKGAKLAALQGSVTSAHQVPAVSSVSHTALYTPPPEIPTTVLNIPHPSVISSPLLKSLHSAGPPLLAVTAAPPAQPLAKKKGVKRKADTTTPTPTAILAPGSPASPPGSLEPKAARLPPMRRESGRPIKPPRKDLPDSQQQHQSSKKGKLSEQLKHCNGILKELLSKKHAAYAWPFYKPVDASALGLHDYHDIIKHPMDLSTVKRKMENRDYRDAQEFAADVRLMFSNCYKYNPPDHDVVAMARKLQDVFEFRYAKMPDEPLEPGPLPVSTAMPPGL

SMILES | IC50 [1] [nM] | IC50 [2] [nM] | IC50 [3] [nM]
CC(=O)N1c2ccc(-c3ccc(C(=O)O)cc3)cc2[C@H](Nc2ccc(Cl)cc2)C[C@@H]1C [Compound (II), 4-{(2S,4R)-1-acetyl-4-[(4-chlorophenyl)amino]-2-methyl-1,2,3,4-tetrahydro-6-quinolinyl}benzoic acid] | ≤ 316 | ≤ 316 | –
CNCc1ccc(-c2ccc3c(c2)[C@H](NC(=O)OC(C)C)C[C@H](C)N3C(C)=O)cc1 [Compound (IV), 1-methylethyl ((2S,4R)-1-acetyl-2-methyl-6-{4-[(methylamino)methyl]pheny}-1,2,3,4-tetrahydro-4-quinolinyl)carbamate] | ≤ 1000 | ≤ 1000 | ≤ 1000
